This is an account of results in patent US20260130906A1, “THERAPY COMPRISING ANTI-CD19 ANTIBODY AND SUMO-ACTIVATING ENZYME INHIBITOR” (TAKEDA PHARMACEUTICAL COMPANY LIMITED, priority 2021, published 2026).

The test system of test [1] is NK cells co-cultured with DAUDI cells. The test is described as follows: Degranulation of NK cells (CD107a). In kind it is cell-based, human. The settings on record: PBMCs pre-treated 1 μM TAK-981 24 h and/or 0.1 or 10 nM tafasitamab; E:T 10:1; 3 h; vs DMSO control or mono treatments; FIG. 2. How it is done: Whole Blood was collected from healthy volunteers. PBMCs were isolated via density-gradient centrifugation using Biocoll (Biochrome) or Pancoll (PAN Biotech) separating solution and SepMate tubes (STEMCELL Technologies).
Freshly isolated PBMCs were first pre-treated with 1 μM TAK-981 or DMSO-containing buffer for 24 hours. PBMCs with or without TAK-981 pre-treatment were co-cultured with DAUDI cells at an E:T ratio of 10:1 and incubated with 0.1 or 10 nM tafasitamab or no antibody at 37° C. and 5% CO2. After 1 hour, 2 μM Monensin was added to each well and CD107a expression was analyzed by flow cytometry after a total incubation time of 3 hours.

The subject of test [2] is OCI-Ly10 human xenograft tumor model. The test is described as follows: Study 2: OCI-Ly10 human xenograft tumor model. Type of test: in vivo, CB17 SCID mice. The settings on record: for GRI % / Tumor volume on Day 25 (±SEM): OCI-Ly10; for GRI %: Day 25, vs vehicle; for Tumor volume on Day 25 (±SEM): in mm³ (unit assumed); for tumor growth inhibition as a single agent (in words): human OCI-Ly10 DLBCL mouse model. How it is done:
The differences in the tumor growth trends over time between pairs of treatment groups were assessed by fitting each animal's data to a simple exponential growth model and comparing the mean growth rates of the two groups, as described in more detail below. The difference in the growth rates was summarized by the GRI, which is the reduction in growth rate experienced by the treatment group relative to that of the reference group, expressed as a fraction of the vehicle growth rate.
A GRI greater than 100% is interpreted as tumor regression when the vehicle group is the same as the reference group. A negative value of the GRI means that the tumors in the treatment group grew faster than the tumors in the reference group. Statistical significance was determined using an unpaired t-test.
Low tumor volumes can cause problems with the data analysis, so all measurements below 25 cubic mm (including 0 values) were excluded from the analysis. After this exclusion step, the tumor volume was assumed to follow an exponential growth model. More specifically, for a given animal and treatment group,
Combination analysis was performed to determine if there was a benefit from combining drug treatments. This analysis was also based on the estimated tumor growth rates. The measure of synergy was defined as
Here, μAB, μA, μB, and μControl are the mean growth rates for the combination, drug A, drug B, and control groups, respectively. As before, μV is the mean tumor growth rate for the vehicle group, which in most cases is the same as the control group. The standard error of the synergy score was calculated as the square root of the sum of squared standard errors across the four groups. The degrees of freedom were estimated using the Welch-Satterthwaite equation. A hypothesis test was performed to determine if the synergy score differed from 0. P-values were calculated by dividing the synergy score by its standard error and tested against a t-distribution (two-tailed) with the above-calculated degrees of freedom. A P value of less than 0.05 is statistically significant.
The combination results can be interpreted as follows. Statistically significant negative synergy scores indicate a synergistic combination (“Syn.”). Statistically significant positive synergy scores indicate a sub-additive combination (“Sub-add.”) when the combination performs better (i.e. has a lower growth rate) than the best performing single agent. Statistically significant positive synergy scores indicate an antagonistic combination (“Antag.”) when the combination performs worse than the best performing single agent. Scores that are not statistically significant should be considered additive (“Add.”).
OCI-Ly10 is a human DLBCL cell line. An OCI-Ly10 human xenograft tumor model was generated by subcutaneous inoculation in the flank of 8 week old female CB17 SCID mice (Charles River Laboratories, Wilmington, MA) with 4.0×10^6 OCI-Ly10 cells (cell suspension in 0.1 ml IMDM with Matrigel 1:1). When the mean tumor volume reached approximately 175 mm^3, the animals were randomized into one vehicle control group and 7 treatment groups (n=7/group) as described in Table 2a. Mice were then dosed with 20% HPβCD or Compound I-263a and/or tafasitamab over a 3 week period. In the combination treatment groups, I-263a was administered first, followed immediately by the administration of tafasitamab. Tumor growth and body weight were measured twice per week during the treatment and post-treatment periods, and mice were humanely euthanized once they had reached their humane endpoint. Tumors were measured using Vernier calipers and volumes were calculated using standard equation: V=W^2×L/2, where V=volume, W=width, and L=length for the tumor.
A 0.75 mg/mL stock solution of I-263a was formulated weekly in 20% HPβCD and administered intravenously (IV) based on an average body weight using a 0.2 mL dosing volume. Final dose of I-263a received was 7.5 mg/kg. […]

Consider `Cc1sc(C(=O)c2cncnc2N[C@@H]2C[C@H](COS(N)(=O)=O)[C@@H](O)C2)cc1[C@@H]1NCCc2ccc(Cl)cc21` [Compound I-263a, [(1R,2S,4R)-4-{[5-({4-[(1R)-7-chloro-1,2,3,4-tetrahydroisoquinolin-1-yl]-5-methyl-2-thienyl}carbonyl)pyrimidin-4-yl]amino}-2-hydroxycyclopentyl]methyl sulfamate], for which the “percentage of CD107+ NK cells” value in test [1] is given as “elevated percentage of CD107+ NK cells”. The GRI % in test [2] (I-263a 7.5 mg/kg IV BIW) is reported as 55%. Further, in test [2] (I-263a 7.5 mg/kg IV BIW 3 weeks), the “Tumor volume on Day 25 (±SEM)” value was determined as 615.9 ± 106.4. Moreover, the “tumor growth inhibition as a single agent (in words)” value in test [2] is “inhibits tumor growth”.
With “Tafasitamab: humanized monoclonal antibody that targets the antigen CD19, engineered in the IgG Fc-region to enhance ADCC; sequences in Table 1”, the “percentage of CD107+ NK cells” value in test [1] is “elevated percentage of CD107+ NK cells”. Further, the GRI % in test [2] (tafasitamab 3 mg/kg IP BIW) was 37%; in test [2] (tafasitamab 10 mg/kg IP BIW), 43%; in test [2] (tafasitamab 20 mg/kg IP BIW), 36%. The results for the “Tumor volume on Day 25 (±SEM)” value in test [2] (tafasitamab 3 mg/kg IP BIW 3 weeks), in test [2] (tafasitamab 10 mg/kg IP BIW 3 weeks) and in test [2] (tafasitamab 20 mg/kg IP BIW 3 weeks) were 701 ± 94.2, 745.1 ± 154.2 and 809.2 ± 129.1, respectively. The “tumor growth inhibition as a single agent (in words)” value in test [2] is “inhibits tumor growth”.
